What all share (assay type): in vivo, rat
The test system of assay [1] is mechanical hyperalgesia induced by 2′,3′-dideoxycytidine (ddC). Briefly: ddC-induced mechanical hyperalgesia, paw-withdrawal threshold (Ugo Basile Analgesymeter). Conditions: inhibitor 5 μg i.d. hind paw, day 5 after ddC 50 mg/kg i.v., read 30 min after inhibitor; p<0.05. Here is the method: (§1) Experiments were performed on 220-260-g male Sprague-Dawley rats (Charles River, Fremont, Calif., USA). Rats were housed in groups of 2 under a 12-h light-dark cycle. Food and water were available ad libitum. Experiments were carried out in accordance with NIH regulations for the care and use of animals in research, and under approval of the Institutional Animal Care and Use Committee of the University of California, San Francisco.
(§2) The nociceptive mechanical flexion reflex was quantified with an Ugo Basile Analgesymeter® (Stoelting, Chicago, Ill.), which applies a linearly increasing mechanical force to the dorsum of the rat's hind paw. Mechanical paw-withdrawal thresholds were determined in control (saline treated) and test agent treated rats. Four readings were taken at 5-min intervals and the mean of the last three readings were used to define the baseline paw-withdrawal threshold (Aley and Levine, 1999; Aley et al., 2001). The time at which the readings were taken was based on the time course of each test agent (described in results).
(§3) Algesic agents employed in this study were: vincristine sulfate (VCR), 2′,3′-dideoxycytidine (ddC), streptozotocin sulfate (STZ), tumor necrosis factor-α (TNFα) prostaglandin E2 (PGE2), epinephrine (Epi) (Sigma, St. Louis, Mo.) and N-Acetyl Sphingosine (C2-Ceramide obtained from Upstate USA, Inc, Lake Placid, N.Y.). Doses of the algesic agents were, VCR (200 μg/kg), ddC (50 mg/kg), STZ (50 mg/kg), PGE2 (100 ng/paw) and Epi (100 ng/paw). A single i.v. injection of VCR (200 μg/kg) produced significant mechanical hyperalgesia (>30 % reduction in paw-withdrawal threshold). This effect reached maximum on day 5 following the drug administration and was persistent for more then 15 days (Joseph, 2003 #5). STZ (50 mg/kg, i.v.×1), induced diabetes in rats, as indicated by with a blood glucose level >300 mg/dL, and a nociceptive threshold reduction (>30%). This effect reached maximum on day 3 following administration of the neuropathy inducing drug and was persistent for over 15 days (Joseph, 2003 #4).
(§4) TNFα, C2-Ceramide, PGE2, Epi, and all the inhibitors (see Table I) were administered intradermally (i.d.) on the dorsal surface of the hind paw in a volume of 2.5-5.0 μl, via a 30-gauge hypodermic needle. In co-injection experiments, agents were separated by very small air pockets, in one syringe, so that they could be administered with a single cutaneous needle penetration. As a control, all inhibitors were studied for independent effects on baseline nociceptive threshold. Inhibitors were either co-injected (with TNFα, C2-Ceramide, PGE2, and Epi) or administered on day five following the administration of VCR, ddC and STZ. Drugs were either dissolved in saline (VCR, ddC, STZ, TNF-α, PGE2, Epi) or in 10% DMSO (C2-Ceramide and inhibitors).
(§5) Group data are presented as % reduction in nociceptive threshold (mean+/±SEM) and comparisons between groups performed using Student's t-test (paired or unpaired, as appropriate). A probability of p<0.05 was considered statistically significant.
FIG. 1 depicts the effect of inhibitors of caspases administered in the hind paw of the rat, on mechanical hyperalgesia induced by the AIDS therapy drug 2′,3′-dideoxycytidine (ddC). The effect of inhibitors of caspase 1 (BACMK), 2 (Z-VDAD-FMK), 3 (Ac-DMQD-CHO), 8 (IETD-CHO), 9 (Z-LEHD-FMK.TFA), the non-selective broad-spectrum caspase inhibitor (NS) Z-VAD-FMK and the negative control for the non-selective broad-spectrum caspase inhibitor Z-FA-FMK [NS (Con)] on the nociceptive paw-withdrawal thresholds of rats were evaluated. Paw-withdrawal thresholds were measured on the 5th day after injection of ddC and 30 min after the administration of inhibitors. N=8/group, *=p<0.05, with respect to mechanical nociceptive threshold prior to injection of the inhibitor.

The test system of assay [2] is mechanical hyperalgesia induced by vincristine (VCR). Description: Vincristine-induced mechanical hyperalgesia, paw-withdrawal threshold. Conditions: inhibitor 5 μg i.d. hind paw, day 5 after VCR 200 μg/kg i.v., read 30 min after inhibitor; p<0.05. The protocol:
as §1, §2, §3, §4, §5
FIG. 2 depicts the effect of inhibitors of caspases, administered in the hind paw of the rat, on mechanical hyperalgesia induced by the cancer chemotherapy drug Vincristine (VCR). The effect of inhibitors of caspase 1, 2, 3, 8, 9, the non-selective broad-spectrum caspase inhibitor (NS) and the negative control for the non-selective broad-spectrum caspase inhibitor [NS (Con)] on the nociceptive paw-withdrawal thresholds were evaluated. Paw-withdrawal thresholds were measured on the 5th day after injection of VCR and 30 min after the administration of the inhibitors. N=8/group, *=p<0.05, with respect to the value prior to injection of the inhibitor.

For assay [3], the system named is STZ-induced mechanical hyperalgesia. Briefly: STZ (diabetes)-induced mechanical hyperalgesia, paw-withdrawal threshold. Conditions: single test dose 5 μg i.d. hind paw, rats treated with STZ 50 mg/kg i.v. The protocol: as §1, §2
Algesic agents employed in this study were: vincristine sulfate (VCR), 2′,3′-dideoxycytidine (ddC), streptozotocin sulfate (STZ), tumor necrosis factor-α (TNFα) prostaglandin E2 (PGE2), epinephrine (Epi) (Sigma, St. Louis, Mo.) and N-Acetyl Sphingosine (C2-Ceramide obtained from Upstate USA, Inc, Lake Placid, N.Y.). […]

Assay [4] deals with mechanical hyperalgesia induced by TNF-α. Briefly: TNFα-induced mechanical hyperalgesia, inhibitors co-injected. Conditions: inhibitor 5 μg co-injected i.d. with TNFα 100 ng, read at 30 min; p<0.05. The protocol: as §1, §2
Inhibitors of caspases and neutral sphingomyelinase are described in Table I, which is repeated for convenience. The doses of TNFα (100 ng) and C2-Ceramide (10 μg) were based on dose response experiments performed as part of this study. VCR, STZ, and ddC were administered intravenously (i.v.) in a volume of 1 ml/kg, followed by 0.5 ml saline. Control rats received equal volume of saline. […]
FIG. 4 depicts the effect of inhibitors of caspases and sphingomyelinase on mechanical hyperalgesia induced by tumor necrosis factor alpha (TNF-α). The effect of inhibitors of caspase 1, 2, 3, 8, 9, the non-selective broad-spectrum caspase inhibitor (NS), the negative control for the non-selective broad-spectrum caspase inhibitor [NS (Con)], and the neutral sphingomyelinase inhibitor (GW4869) on the nociceptive paw-withdrawal thresholds of rats was evaluated. The inhibitors were co-injected with TNF-α and the paw-withdrawal thresholds measured 30 min after the drug administration. […]

Assay [5] deals with mechanical hyperalgesia induced by ceramide. Description: C2-ceramide-induced mechanical hyperalgesia, inhibitors co-injected. As to conditions: inhibitor 5 μg co-injected i.d. with C2-ceramide 10 μg, read at 1 hr; p<0.05. Here is the method:
as §1, §2
Inhibitors of caspases and neutral sphingomyelinase are described in Table I, which is repeated for convenience. […]
FIG. 6 depicts the effect of inhibitors of caspases on mechanical hyperalgesia induced by ceramide. […] The inhibitors were co-injected with ceramide and paw-withdrawal thresholds measured 1 hr after the drug administration. […]

Assay [6] relates to prostaglandin E2 (PGE2)-induced hyperalgesia. Briefly: PGE2-induced mechanical hyperalgesia, inhibitor co-injected. As to conditions: co-injected with PGE2 100 ng/paw, read at 30 min. The protocol: as §1
as §2, with “results). […]” for “results).”
(§6) FIG. 7 depicts the effect of the non-selective caspase inhibitor on prostaglandin E2 (PGE2), epinephrine (Epi)-induced hyperalgesia. The caspase inhibitor was co-injected with PGE2 and epinephrine and the paw-withdrawal thresholds measured 30 min after the drug administration. […]

In assay [7] the test system is epinephrine (Epi)-induced hyperalgesia. Briefly: Epinephrine-induced mechanical hyperalgesia, inhibitor co-injected. As to conditions: co-injected with Epi 100 ng/paw, read at 30 min. Here is the method:
as §1
as §2, with “results). […]” for “results).”
as §6

The subject of assay [8] is mechanical nociceptive threshold of normal/control rats. Description: Independent effect of inhibitors on baseline mechanical nociceptive threshold in control rats. Conditions: i.d. hind paw, data not shown. Here is the method: as §1, §2
TNFα, C2-Ceramide, PGE2, Epi, and all the inhibitors (see Table I) were administered intradermally (i.d.) on the dorsal surface of the hind paw in a volume of 2.5-5.0 μl, via a 30-gauge hypodermic needle. […]

Entries after “also recorded” stand apart in the source; their conditions may differ.

On to “Z-Val-Ala-Asp(OMe)-Fluoro methyl ester [Z-VAD-FMK]”, for which, in assay [1], the “effect on ddC-induced mechanical hyperalgesia” value was “markedly attenuated; also recorded: markedly attenuating pain-related behavior”. Moreover, in assay [2], the “effect on vincristine-induced mechanical hyperalgesia” value is on record as “markedly attenuated; also recorded: moderately attenuating pain”. In addition, the “effect on STZ-induced mechanical hyperalgesia” value in assay [3] is “did not produce significant attenuation of hyperalgesia; also recorded: having no effect”. Further, the “effect on TNFα-induced hyperalgesia” value in assay [4] is “markedly attenuated”. Also, the “effect on C2-ceramide-induced hyperalgesia” value in assay [5] is “significantly less hyperalgesia”. Besides, the “effect on PGE2-induced hyperalgesia” value in assay [6] is on record as “had no effect on the hyperalgesia”. In addition, in assay [7], the “effect on Epi-induced hyperalgesia” value was “had no effect on the hyperalgesia”. The “effect of inhibitor alone on mechanical nociceptive threshold” value in assay [8] is “had no effect on mechanical nociceptive threshold”.

Source of the values: patent US20060073504A1, “Treatment of pain by inhibition of caspase signaling” (The Regents of the University of California, priority 2004, published 2006).
